This note sets out measurements from patent US6645966B2, “Treatment of malaria with farnesyl protein transferase inhibitors” (Schering Corporation, priority 2001, dated 2003).

Usually melting point stands for the temperature of the solid-liquid transition.

Series [1] relates to P. falciparum (strain C10, partially chloroquine resistant strain). In words: In Vitro Plasmodium falciparum Growth Inhibition Assay ([3H]-hypoxanthine uptake into infected erythrocytes). The class given is cell-based. Conditions: Erythrocyte. On the procedure:
The growth activity of P. falciparum was determined by measuring the uptake of the radiolabeled nucleic acid precursor [3H]-hypoxanthine from the media into infected erythrocytes by a method similar to that reported by Jomaa et al (1999). In this method human red blood cells (RBC) were infected with P. falciparum (strain C10, partially chloroquine resistant strain) to 0.4% parasitemia (0.4% of the RBC contain at least 1 parasite). The infected human RBC cells were adjusted to a hematocrit of 2% and 200 μl was plated into 96 well plates. DMSO solutions of inhibitors were added to the plates to make final concentrations of inhibitors from 20 μM to 0.2 μM and a final concentration of DMSO between 0.2 and 1%. The inhibitor-RBC solutions were incubated for 48 hours followed by the addition of [3H]-hypoxanthine to each well and further incubated for 24 hours. The incorporation of [3H]-hypoxanthine into the parasite DNA was measured by acid precipitating the nucleic acid content onto filters, washing the filters and counting the incorporated radioactivity in a scintillation counter.

Read-outs that look alike come from different tables or passages of the source.

Turning to `N#Cc1ccc(Cn2cncc2CCNC(=O)[C@H]2CN(Cc3ccncc3)CCN2C(=O)NC2CCCCC2)cc1`, the melting point was 80 °C (dec.).
With `Clc1ccc2c(c1)CCc1cccnc1C2N1CCC[C@H](Cn2ccnc2)C1` (single isomer, unassigned), the melting point fell in the range of 71 to 75 °C.
Consider `CCN(CC)CCCC(C)Nc1ccnc2cc(Cl)ccc12` (stereo not shown) [chloroquine], for which, in series [1] (read-out: ED50), the EC50 was found to be 260 nM.
Regarding `O=CN(O)CCCP(=O)(O)O` [fosmidomycin], in series [1] (P. falciparum strain C10 in infected human RBC, 0.4% parasitemia, 48 hours incubation then [3H]-hypoxanthine for 24 hours, read-out: ED50 (the source's name)), the EC50 came out at 600 nM.
